Measured values published in US20230132256A1, “COMBINATION THERAPY” (ADC THERAPEUTICS SA, priority 2018, published 2023).

System: CT26 syngeneic model (subcutaneous CT26 tumors)
Assay: In vivo efficacy study testing combination of sur301 (sADC×25) with gemcitabine in the CT26 syngeneic model
Set-up: species or system female BALB/c mice
Details: Gemcitabine 80 mg/kg i.p. q3d×4 (Days 1, 4, 7, 10), single agent, animals of n=10/group
Method: On the day of implant, cultured CT26 cells were harvested during log phase growth and resuspended in PBS at a concentration of 3×10^6 cells/mL. Tumors were initiated by subcutaneously implanting 3×10^5 CT26 cells (0.1 mL suspension) into the right flank of each test animal. Tumors were monitored as their volumes approached the target range of 80-120 mm^3. Tumor were measured in two dimensions using calipers, and volume was calculated using the formula:
Tumor Volume (mm^3)=w2×l/2
where w=width and l=length, in mm, of the tumor. Tumor weight may be estimated with the assumption that 1 mg is equivalent to 1 mm3 of tumor volume.
Fifteen days after tumor cell implantation, on Day 1 of the study, animals were sorted into groups (n=10/group) with individual tumor volumes of 75 to 144 mm^3, and group mean tumor volumes of 104-106 mm^3.
All doses were administered intraperitoneally (i.p.). The dosing volume was 0.2 mL per 20 grams of body weight (10 mL/kg), and was scaled to the body weight of each individual animal.
Gemcitabine was administered at 80 mg/kg q3d×4 which corresponded to Days 1, 4, 7 and 10.
The antibody component of ADC×25 specifically binds human CD25. […]
Tumors were measured using calipers twice per week, and each animal was euthanized when its tumor reached the endpoint volume of 2000 mm^3 or at the end of the study (Day 56), whichever came first.
Response Table Criteria: • Treatment may cause partial regression (PR) or complete regression (CR) of the tumor in an animal. • In a PR response, the tumor volume is 50% or less of its Day 1 volume for three consecutive measurements during the course of the study, and equal to or greater than 13.5 mm3 for one or more of these three measurements. • In a CR response, the tumor volume is less than 13.5 mm3 for three consecutive measurements during the study. • Any animal with a CR response at the end of the study was additionally classified as a tumor-free survivor (TFS). • Animals were scored only once during the study for a PR or CR event and only as CR if both PR and CR criteria were satisfied. […]

Nc1ccn([C@@H]2O[C@H](CO)[C@@H](O)C2(F)F)c(=O)n1 [Gemcitabine]
0: CR (complete regression) | PR (partial regression) | TFS (tumor-free survivor) (end of study Day 56)
